Experimental data reported in the supplement of paper PMC10307832.

Legend:
Assay in all cases: relative viability (nuclei count vs DMSO), 5 days (fraction); higher = more cells survive
VE-821 + OSI-027 = compound: CS(=O)(=O)c1ccc(-c2cnc(N)c(C(=O)Nc3ccccc3)n2)cc1 [VE-821] + COc1cccc2cc(-c3nc([C@H]4CC[C@H](C(=O)O)CC4)n4ncnc(N)c34)[nH]c12 [OSI-027] (partner 0.5 µM)
Method in brief: (§1)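 Lung cancer cell lines, seeded in 1536-well plates, were treated the following day by pin tool with a single drug or with five library-drug doses (not always all listed) in √10 steps on top of a fixed anchor-drug dose. Cells were fixed and nuclei stained in one step after 5 days, and nuclei were counted. Relative viability is the nuclei count for treated wells divided by that for vehicle wells, reported as medians of duplicate plates.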

VE-821 + Tozasertib = compound: CS(=O)(=O)c1ccc(-c2cnc(N)c(C(=O)Nc3ccccc3)n2)cc1 [VE-821] + Cc1cc(Nc2cc(N3CCN(C)CC3)nc(Sc3ccc(NC(=O)C4CC4)cc3)n2)n[nH]1 [Tozasertib] (partner 0.1 µM)
Method in brief: as §1

VE-821 + Phenformin = compound: CS(=O)(=O)c1ccc(-c2cnc(N)c(C(=O)Nc3ccccc3)n2)cc1 [VE-821] + N=C(N)NC(=N)NCCc1ccccc1 [Phenformin] (partner 250 µM)
Method in brief: as §1

Vismodegib + Pictilisib = compound: CS(=O)(=O)c1ccc(C(=O)Nc2ccc(Cl)c(-c3ccccn3)c2)c(Cl)c1 [Vismodegib] + CS(=O)(=O)N1CCN(Cc2cc3nc(-c4cccc5[nH]ncc45)nc(N4CCOCC4)c3s2)CC1 [Pictilisib] (partner 1 µM)
Method in brief: as §1

UMC-11 showed a relative viability (VE-821 + OSI-027; first compound 0.08 µM) of 0.507, a relative viability (VE-821 + OSI-027; first compound 0.253 µM) of 0.436 and a relative viability (VE-821 + OSI-027; first compound 0.8 µM) of 0.508. For the same cell line, the relative viability (VE-821 + OSI-027; first compound 2.53 µM) was 0.477, the relative viability (VE-821 + OSI-027; first compound 8 µM) was 0.325 and the relative viability (VE-821 + Tozasertib; first compound 0.08 µM) was 0.203. For the same cell line, the relative viability (VE-821 + Tozasertib; first compound 0.253 µM) was 0.195, the relative viability (VE-821 + Tozasertib; first compound 0.8 µM) was 0.223 and the relative viability (VE-821 + Tozasertib; first compound 2.53 µM) was 0.2. It also gave a relative viability (VE-821 + Tozasertib; first compound 8 µM) of 0.203, a relative viability (VE-821 + Phenformin; first compound 0.08 µM) of 0.335 and a relative viability (VE-821 + Phenformin; first compound 0.253 µM) of 0.301. For the same cell line, the relative viability (VE-821 + Phenformin; first compound 0.8 µM) was 0.331, the relative viability (VE-821 + Phenformin; first compound 2.53 µM) was 0.341 and the relative viability (VE-821 + Phenformin; first compound 8 µM) was 0.265. It also gave a relative viability (Vismodegib + Pictilisib; first compound 0.08 µM) of 0.727, a relative viability (Vismodegib + Pictilisib; first compound 0.253 µM) of 0.703 and a relative viability (Vismodegib + Pictilisib; first compound 0.8 µM) of 0.738. For the same cell line, the relative viability (Vismodegib + Pictilisib; first compound 2.53 µM) was 0.75 and the relative viability (Vismodegib + Pictilisib; first compound 8 µM) was 0.271.
